Converted amounts (≈) assume the structure as drawn.
Experiments:
[1] = biological target: 3',5'-cyclic-AMP phosphodiesterase 4B (Homo sapiens, UniProt Q07343); assay: Inhibition of human PDE4B expressed in insect cells assessed as inhibition of [3H]cAMP to [3H]AMP hydrolysis after 30 mins by scintillation counting
[2] = Solubility of the compound in phosphate buffer at pH 6.8; format: physicochemical
[3] = biological target: High affinity 3',5'-cyclic-AMP phosphodiesterase 7A (Homo sapiens, UniProt Q13946); assay: Inhibition of human PDE7A expressed in insect cells assessed as inhibition of [3H]cAMP to [3H]AMP hydrolysis after 30 mins by scintillation counting
[4] = biological target: cGMP-inhibited 3',5'-cyclic phosphodiesterase 3A (Homo sapiens, UniProt Q14432); assay: Inhibition of PDE3A (unknown origin)
[5] = system: Mus musculus; assay: Antiinflammatory activity in ICR mouse ear edema model assessed as inhibition of TPA-induced edema at 0.3 % W/V per ear administered topically 30 mins before TPA challenge; format: functional
[6] = biological target: cGMP-specific 3',5'-cyclic phosphodiesterase (Homo sapiens, UniProt O76074); assay: Inhibition of PDE5A (unknown origin)
[7] = system: Lymphocyte; assay: Inhibition of IL2 production in activated mouse lymphocytes after 3 hrs by ELISA; format: functional, cell-based
[8] = system: Mus musculus; assay: Antiinflammatory activity in ICR mouse ear edema model assessed as inhibition of TPA-induced edema at 1% W/V per ear administered topically 30 mins before TPA challenge; format: functional

Sequence of 3',5'-cyclic-AMP phosphodiesterase 4B (Q07343 whole entry): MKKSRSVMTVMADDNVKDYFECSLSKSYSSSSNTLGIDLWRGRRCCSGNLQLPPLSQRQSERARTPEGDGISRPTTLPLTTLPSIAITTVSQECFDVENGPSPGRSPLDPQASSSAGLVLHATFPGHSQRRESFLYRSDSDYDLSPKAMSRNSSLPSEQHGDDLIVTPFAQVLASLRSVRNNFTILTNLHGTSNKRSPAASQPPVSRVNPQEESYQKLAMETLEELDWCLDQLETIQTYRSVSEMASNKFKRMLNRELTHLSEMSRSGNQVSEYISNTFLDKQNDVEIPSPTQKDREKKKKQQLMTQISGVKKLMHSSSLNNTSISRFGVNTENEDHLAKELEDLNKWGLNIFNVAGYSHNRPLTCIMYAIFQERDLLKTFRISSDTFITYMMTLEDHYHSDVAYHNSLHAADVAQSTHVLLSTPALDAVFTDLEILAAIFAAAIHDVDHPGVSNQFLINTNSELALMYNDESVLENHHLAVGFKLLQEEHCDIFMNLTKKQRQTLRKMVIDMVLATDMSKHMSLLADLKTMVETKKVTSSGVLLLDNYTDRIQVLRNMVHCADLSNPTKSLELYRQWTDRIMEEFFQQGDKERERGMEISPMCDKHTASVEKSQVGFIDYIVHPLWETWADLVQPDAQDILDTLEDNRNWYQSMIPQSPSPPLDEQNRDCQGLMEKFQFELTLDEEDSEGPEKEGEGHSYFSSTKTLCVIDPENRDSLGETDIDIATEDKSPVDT
Sequence of cGMP-inhibited 3',5'-cyclic phosphodiesterase 3A (Q14432 whole entry): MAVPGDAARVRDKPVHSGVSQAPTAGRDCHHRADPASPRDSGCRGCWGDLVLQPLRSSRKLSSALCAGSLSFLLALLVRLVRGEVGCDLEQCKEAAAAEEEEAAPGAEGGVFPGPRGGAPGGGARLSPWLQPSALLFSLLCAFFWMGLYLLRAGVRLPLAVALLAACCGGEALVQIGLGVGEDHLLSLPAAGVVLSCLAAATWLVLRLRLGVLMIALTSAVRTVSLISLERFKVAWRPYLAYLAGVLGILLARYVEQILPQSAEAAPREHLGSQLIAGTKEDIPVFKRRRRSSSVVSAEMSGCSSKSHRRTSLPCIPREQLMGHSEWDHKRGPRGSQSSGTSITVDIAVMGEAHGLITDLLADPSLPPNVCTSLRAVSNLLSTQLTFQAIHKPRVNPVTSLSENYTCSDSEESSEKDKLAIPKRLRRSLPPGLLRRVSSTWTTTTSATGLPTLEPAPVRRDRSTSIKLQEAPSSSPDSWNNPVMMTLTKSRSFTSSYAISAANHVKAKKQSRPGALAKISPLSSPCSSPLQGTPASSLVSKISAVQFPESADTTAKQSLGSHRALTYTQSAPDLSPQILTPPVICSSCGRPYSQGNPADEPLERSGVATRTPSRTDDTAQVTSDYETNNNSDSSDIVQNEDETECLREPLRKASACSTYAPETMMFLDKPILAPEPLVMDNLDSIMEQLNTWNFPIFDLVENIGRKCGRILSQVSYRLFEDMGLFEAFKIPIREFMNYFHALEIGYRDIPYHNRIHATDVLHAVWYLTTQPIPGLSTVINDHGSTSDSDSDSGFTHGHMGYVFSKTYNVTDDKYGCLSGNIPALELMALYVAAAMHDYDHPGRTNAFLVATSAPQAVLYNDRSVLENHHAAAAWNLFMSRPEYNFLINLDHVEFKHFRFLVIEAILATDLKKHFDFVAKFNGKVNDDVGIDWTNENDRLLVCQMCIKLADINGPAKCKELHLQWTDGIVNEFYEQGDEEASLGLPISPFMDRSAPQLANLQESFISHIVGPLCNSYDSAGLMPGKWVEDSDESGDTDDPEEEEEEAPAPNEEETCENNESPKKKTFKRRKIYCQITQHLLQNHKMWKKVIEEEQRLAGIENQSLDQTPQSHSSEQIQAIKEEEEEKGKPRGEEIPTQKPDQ
Sequence of High affinity 3',5'-cyclic-AMP phosphodiesterase 7A (Q13946 whole entry): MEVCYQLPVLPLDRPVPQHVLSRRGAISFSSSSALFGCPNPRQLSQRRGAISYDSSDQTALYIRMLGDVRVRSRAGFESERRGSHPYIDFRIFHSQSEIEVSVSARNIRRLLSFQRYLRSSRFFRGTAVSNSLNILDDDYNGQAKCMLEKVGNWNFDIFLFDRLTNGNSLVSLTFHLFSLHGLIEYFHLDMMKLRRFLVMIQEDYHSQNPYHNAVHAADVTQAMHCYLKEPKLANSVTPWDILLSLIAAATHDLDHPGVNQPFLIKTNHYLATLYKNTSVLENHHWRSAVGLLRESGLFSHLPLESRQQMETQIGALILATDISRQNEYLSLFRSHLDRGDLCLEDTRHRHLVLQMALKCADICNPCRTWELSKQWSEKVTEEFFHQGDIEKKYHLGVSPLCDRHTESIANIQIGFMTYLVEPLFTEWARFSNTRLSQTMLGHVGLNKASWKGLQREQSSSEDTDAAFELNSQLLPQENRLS

Row | solubility [2] [µg/mL] | IC50 [3] [nM] | IC50 [4] [nM] | IC50 [6] [nM] | IC50 [7] [nM] | Compound | IC50 [1] [nM] | inhibition (INH) [5] [%] | inhibition (INH) [8] [%]
1 | 350 (≈ 965 µM) | 170 | – | – | > 3000 | CCn1c(NC(C)C)nc2c(C3CCN(C(C)C)CC3)csc2c1=O | 25000 | – | –
2 | 6.3 (≈ 25.3 µM) | 300 | – | – | – | CCn1c(NC2CCC2)nc2ccsc2c1=O | 4800 | – | –
3 | 1100 (≈ 3430 µM) | 190 | – | – | – | CCn1c(NC(C)C)nc2c(C3CCNCC3)csc2c1=O | 14000 | – | –
4 | 240 (≈ 1070 µM) | 2900 | – | – | – | CCNc1nc2ccsc2c(=O)n1CC | – | – | –
5 | 13 (≈ 38.8 µM) | 2100 | – | – | – | CCn1c(N[C@H]2CC[C@H](C(=O)OC)CC2)nc2ccsc2c1=O | – | – | –
6 | 69 (≈ 291 µM) | 1400 | – | – | – | CCCNc1nc2ccsc2c(=O)n1CC | – | – | –
7 | 3.7 (≈ 14.7 µM) | 1500 | – | – | – | CCn1c(NC(C)(C)C)nc2ccsc2c1=O | – | – | –
8 | 74 (≈ 252 µM) | 2300 | – | – | – | CCn1c(N[C@H]2CC[C@H](O)CC2)nc2ccsc2c1=O | 24000 | – | –
9 | 470 (≈ 1350 µM) | 15 | – | – | – | CCn1c(NC(C)C)nc2c(C3CCN(C(C)=O)C3)csc2c1=O (stereo not given) | 1900 | – | –
10 | 130 (≈ 345 µM) | 8.4 | – | – | > 1000 | CCn1c(NC(C)C)nc2c(C3CCN(C(=O)C(C)C)C3)csc2c1=O (stereo not given) | 1400 | – | –
11 | 430 (≈ 1830 µM) | 2600 | – | – | – | CCn1c(NC2CC2)nc2ccsc2c1=O | – | – | –
12 | – | 4700 | – | – | – | CCn1c(CC(C)C)nc2ccsc2c1=O | – | – | –
13 | 450 (≈ 1400 µM) | 1300 | – | – | – | CCn1c(N[C@H]2CC[C@H](C(=O)O)CC2)nc2ccsc2c1=O | – | – | –
14 | 190 (≈ 801 µM) | – | – | – | – | CCn1c(NC(C)C)nc2ccsc2c1=O | – | – | –

The remaining lines, values behind:

Row | Compound | solubility [2] [µg/mL] | IC50 [3] [nM] | IC50 [4] [nM] | IC50 [6] [nM] | IC50 [7] [nM] | IC50 [1] [nM] | inhibition (INH) [5] [%] | inhibition (INH) [8] [%]
15 | CCn1c(NC2CCOCC2)nc2ccsc2c1=O | 37 (≈ 132 µM) | 430 | – | – | – | 12000 | – | –
16 | CCn1c(NC(C)C)nc2c(C3CCN(C(=O)c4cccc(C)n4)C3)csc2c1=O (stereo not given) | 150 (≈ 352 µM) | 3.3 | 1600 | 2300 | 150 | 46 | 65 | 96
17 | CCn1c(NC(C)C)nc2c(C3CCCN(C(C)=O)C3)csc2c1=O (stereo not given) | 230 (≈ 634 µM) | 5.1 | – | – | 750 | 560 | – | –
18 | CCn1c(NC(C)C)nc2c(C3CCN(C(C)=O)CC3)csc2c1=O | 74 (≈ 204 µM) | 20 | – | – | 2000 | 1500 | – | –
19 | CCn1c(NC(C)C)nc2c(-c3ccco3)csc2c1=O | 0.1 (≈ 0.33 µM) | 12 | – | – | – | 550 | – | –
20 | CCn1c(NC(C)C)nc2c(C3CCN(C(=O)c4ccccc4)C3)csc2c1=O (stereo not given) | 21 (≈ 51.2 µM) | 1.5 | – | – | 760 | 380 | – | –
21 | CCn1c(NC(C)C)nc2c(-c3cccnc3)csc2c1=O | 5.8 (≈ 18.4 µM) | 4.4 | – | – | – | 520 | – | –
22 | CCn1c(NC(C)C)nc2c(-c3ccnc(OC)c3)csc2c1=O | 2.4 (≈ 6.97 µM) | 4.6 | – | – | – | 420 | – | –
23 | CCn1c(NC(C)C)nc2c(C3CCN(C(=O)c4ncccc4C)C3)csc2c1=O (stereo not given) | 64 (≈ 150 µM) | 1.4 | 1300 | 3100 | 270 | 140 | 62 | 77
24 | CCn1c(NC(C)C)nc2c(C3CCN(C(=O)CC(C)C)C3)csc2c1=O (stereo not given) | 15 (≈ 38.4 µM) | 8.1 | – | – | 1800 | 2300 | – | –
25 | CCn1c(NC(C)C)nc2c(-c3sc(C)nc3C)csc2c1=O | 4.5 (≈ 12.9 µM) | 6.4 | – | – | – | 200 | – | –
26 | CCn1c(NC(C)C)nc2c(-c3cncnc3)csc2c1=O | 18 (≈ 57.1 µM) | 7.6 | – | – | – | 1100 | – | –
27 | CCn1c(NC(C)C)nc2c(C3CCN(c4ccccn4)CC3)csc2c1=O | – | 6.8 | – | – | > 3000 | 440 | – | –
28 | CCn1c(NC(C)C)nc2c(C3CCN(C(=O)c4ccccn4)C3)csc2c1=O (stereo not given) | 38 (≈ 92.3 µM) | 2.7 | 3300 | 3000 | 290 | 200 | 45 | 72
